pEC50: −log10 of the molar value. “Also recorded” adds a separate entry of the source. Structures can show the parent of a compound that is named as a salt. Each block holds one compound with its values, some of them ahead of it.
What was measured:
[1] = tested on: Interferon beta (IFNβ), interleukin-6 (IL-6) and tumor necrosis factor alpha (TNFα); assay: Serum and tumor cytokine levels in CT26 tumor-bearing mice (ELISA); format: in vivo, BALB/c mice
Method: Pharmacokinetic and Pharmacodynamic Profiling and Estimation of Immune Cell Infiltration in Tumors Following Treatment with Compounds 2, 6, 8, 12 and 14
Serum and tumor cytokine levels and corresponding compound concentrations in mouse plasma were determined following single-dose intravenous administration in CT26 (murine colorectal carcinoma) tumor-bearing mice. Briefly, naïve BALB/c mice in the age group of 6-8 weeks were inoculated with 0.1 million CT-26 cells/animal in phosphate buffered saline (PBS), subcutaneously. […] Blood and tumor samples were harvested at various time points up to 24 h post-dose. Tumor samples were homogenized and prepared for cytokine estimation (ELISA) and compound concentration were determined by LC-MS/MS. Serum aliquots and tumor samples were snap-frozen and stored at −80° C. till further analysis. Serum and tumor samples were evaluated for Interferon beta (IFNβ), interleukin-6 (IL-6) and tumor necrosis factor alpha (TNFα) by enzyme linked immunosorbent assay (ELISA) using kits from R & D systems (Quantikine mouse IL-6 and TNFα kits) and PBL biosciences (Verikine mouse IFNβ kit).
Cytokine analysis from mouse serum samples: For IL-6 and TNFα estimation, 50 μL of test samples or internal standard or control were applied to wells in duplicates and incubated for 2 h at room temperature, followed by aspiration and washing four times with 400 μL of wash buffer. 100 μL of mouse IL-6 or TNFα conjugate solution was added and incubated further for 2 h at room temperature and followed later by 4 wash cycles. 100 μL of substrate solution was added to each well with addition of stop solution after 30 min. Optical density was measured at 450 nm averaged and was used for further calculations following subtraction of respective blank controls. Cytokine concentrations were determined by interpolating the optical density of samples into the reference standard curve utilizing four parameter logistic (4-PL) curve-fit. Cytokine concentrations were normalized with their respective dilution factors and represented in pg/mL. For IFNβ estimation, 100 μL test sample or internal standard or controls were applied to the wells in duplicates and incubated for 1 h at room temperature followed by three washes and addition of the anti-mouse IFNβ antibody solution with further 1 h incubation. This was followed by addition of horseradish peroxidase (HRP) solution and three washes, later addition of TMB substrate and reading the optical density at 450 nm. Optical densities were blank-subtracted and interpolated to the reference standard utilizing the four parameter logistic (4-PL) curve-fit. Cytokine concentrations were normalized with their respective dilution factors and represented in pg/mL. Tables 4 and 5 indicate cytokine levels for compounds 2, 6, 8, 12, and 14 in serum and tumor at different administered doses.
Cytokine analysis from tumor samples: Tumor samples were homogenized in a bead-based homogenizer and lysates were prepared with buffer supplemented with 1% Triton X-100 and protease inhibitors. Cytokine levels were estimated by ELISA and expressed as pg/g tumor.

Human STING = target: T1, Human STING (Homo sapiens, UniProt Q86WV6, G230A/H232R/R293Q/R71H); assay: Stimulation of human STING signaling in THP1 cell line (THP1-Blue ISG SEAP reporter); format: cell-based; settings: THP1-Blue ISG cells, SEAP activity, 18-20 hours
T1 construct: using human THP1-Blue™ ISG SEAP based reporter cell line (Invivogen); host or cells: THP1-Blue ISG cells (human monocytic THP-1 derived SEAP reporter line)
T1 sequence (Q86WV6 whole entry R71H/G230A/H232R/R293Q): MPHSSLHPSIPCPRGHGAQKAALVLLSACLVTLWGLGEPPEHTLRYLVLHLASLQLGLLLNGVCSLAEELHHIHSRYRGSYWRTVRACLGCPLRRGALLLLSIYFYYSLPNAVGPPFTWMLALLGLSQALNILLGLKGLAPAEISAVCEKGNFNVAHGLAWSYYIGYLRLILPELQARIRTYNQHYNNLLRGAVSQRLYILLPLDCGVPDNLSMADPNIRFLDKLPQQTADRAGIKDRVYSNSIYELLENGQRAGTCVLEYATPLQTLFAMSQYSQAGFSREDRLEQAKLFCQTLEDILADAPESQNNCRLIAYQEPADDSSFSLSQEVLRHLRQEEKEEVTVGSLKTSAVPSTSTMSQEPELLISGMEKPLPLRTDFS
Method: Biological Assay—Stimulation of Human STING Signaling in THP1 Cell Line
Compounds were tested for their STING activation potential using human THP1-Blue™ ISG SEAP based reporter cell line (Invivogen). Briefly, THP1-Blue ISG cells (100,000 cells/well) in 96 well plate were treated with varying concentrations of test and reference compounds and incubated at 37° C. with 5% CO2 for 18-20 hours. The control untreated cells were also set up. Post incubation, the cell supernatant was tested for SEAP (Secreted Embryonic Alkaline Phosphatase) activity using the QuantiBlue™ substrate reagent (Invivogen). The formation of blue coloured product was quantified by measuring absorbance at wavelength of 620 nm using PheraStar/Tecan reader. The average of duplicate readouts for each data point was plotted in GraphPad prism 6 against the concentration of test or reference compound to calculate EC50 value. The fold of SEAP induction or increase in luminescence at different data points was estimated against the un-stimulated cell control set.

CD3^+CD8^+ T cells = assay: Estimation of immune cell infiltration in tumors (flow cytometry); format: in vivo, Balb/c mice; settings: for % CD3^+CD8^+ T cells: infiltration in tumor, 96 h post treatment, 0.375 mg/kg single i.v.; for % CD3^+CD8^+ T cells infiltrating the tumor as compared to the vehicle-treated group: single i.v. dose of 0.375 mg/kg, 96 h post treatment initiation
Method: Estimation of immune cell infiltration in tumors: CT-26 tumor-bearing Balb/c mice were treated intravenously with 0.375 mg/kg of test compounds and blood and tumors were processed for analysis of CD8^+, CD3^+ and CD45^+ T cells at 24 h and 96 h after start of treatment. Blood samples were subjected to RBC lysis and the cells were recovered by centrifugation. Following wash with PBS, the cells were blocked using TruStain FcX™ blocking antibody and stained with fluorophore-tagged anti-CD45, anti-CD3 and anti-CD8 antibodies. Tumor samples were minced and subjected to tissue digestion using freshly prepared collagenase-IV solution (1 mg/ml) containing DNase (0.05 mg/ml) for 1-1.5 h at 37° C. and 150-200 rpm. Single cell suspension was prepared by filtering it through a 100 μm mesh and checked for cell viability. Cells were stained with various antibodies as mentioned above. The distinct T cell subsets were analysed on FACS Canto II (BD) and percentage of each population was calculated after initial gating of CD45^+ lymphocyte population.

[2] = 0.375 mg/kg single i.v., 3.5 h (Table 6)
[3] = 0.375 mg/kg single i.v., 8 h (Table 6)
[4] = 0.375 mg/kg single i.v., 12 h (Table 6)
[5] = 0.375 mg/kg single i.v., 24 h (Table 6)

- pEC50 (Human STING): 8.00 to 9.00
Compound: CCn1nc(C)cc1C(=O)Nc1nc2cc(C(N)=O)cc3c2n1C/C=C/Cn1c(NC(=O)c2cc(C)nn2CC)nc2cc(C(=O)N[C@H]4CC[C@H](c5nnn[nH]5)CC4)cc(c21)OCCCO3 [Compound 6, (E)-N-((1R,4R)-4-(1H-tetrazol-5-yl)cyclohexyl)-1,15-bis(1-ethyl-3-methyl-1H-pyrazole-5-carboxamido)-8,9,16,19-tetrahydro-7H-6,10-dioxa-2,14,15a,19a-tetraazacyclopentadeca[3,2,1-cd:8,9,10-c′d′]diindene-4,12-dicarboxamide sodium salt]
- Serum IFNβ [1, 2]: 3375 ± 528.4 pg/mL
- Tumor IFNβ [1, 2]: 6931 ± 1236.8 pg/g tumor
- Serum IFNβ [1, 3]: 215 ± 39.9 pg/mL
- Tumor IFNβ [1, 3]: 1814 ± 369.3 pg/g tumor
- Serum IFNβ [1, 4]: BLQ
- Tumor IFNβ [1, 4]: 1916 ± 842.7 pg/g tumor
- Serum IFNβ [1, 5]: BLQ
- Tumor IFNβ [1, 5]: 506 ± 239.1 pg/g tumor
- % CD3^+CD8^+ T cells (CD3^+CD8^+ T cells): 13.9 ± 1.3%
- % CD3^+CD8^+ T cells infiltrating the tumor as compared to the vehicle-treated group (CD3^+CD8^+ T cells): increase

- pEC50 (Human STING): 8.00 to 9.00
Compound: CCn1nc(C)cc1C(=O)Nc1nc2cc(C(N)=O)cc3c2n1C/C=C/Cn1c(NC(=O)c2cc(C)nn2CC)nc2cc(C(=O)N[C@H]4CC[C@H](C(=O)O)CC4)cc(c21)OCCCO3 [Compound 2, (1R,4R)-4-((E)-12-carbamoyl-1,15-bis(1-ethyl-3-methyl-1H-pyrazole-5-carboxamido)-8,9,16,19-tetrahydro-7H-6,10-dioxa-2,14,15a,19a-tetraazacyclopentadeca[3,2,1-cd:8,9,10-c′d′]diindene-4-carboxamido)cyclohexane-1-carboxylic acid sodium salt]
- Serum Cytokines IFNβ ([1]; 0.093 mg/kg single i.v., 3.5 h): 446 pg/mL
- Serum Cytokines IL-6 ([1]; 0.093 mg/kg single i.v., 3.5 h): 1323 pg/mL
- Serum Cytokines TNFα ([1]; 0.093 mg/kg single i.v., 3.5 h): 261 pg/mL
- Tumor Cytokines IFNβ ([1]; 0.093 mg/kg single i.v., 3.5 h): 4000 pg/g
- Tumor Cytokines IL-6 ([1]; 0.093 mg/kg single i.v., 3.5 h): 4580 pg/g
- Tumor Cytokines TNFα ([1]; 0.093 mg/kg single i.v., 3.5 h): 2460 pg/g
- Serum Cytokines IFNβ ([1]; 0.093 mg/kg single i.v., 8 h): 64 pg/mL
- Serum Cytokines IL-6 ([1]; 0.093 mg/kg single i.v., 8 h): 662 pg/mL
- Serum Cytokines TNFα ([1]; 0.093 mg/kg single i.v., 8 h): 210 pg/mL
- Tumor Cytokines IFNβ ([1]; 0.093 mg/kg single i.v., 8 h): 955 pg/g
- Tumor Cytokines IL-6 ([1]; 0.093 mg/kg single i.v., 8 h): 1100 pg/g
- Tumor Cytokines TNFα ([1]; 0.093 mg/kg single i.v., 8 h): 637 pg/g
- Serum Cytokines IFNβ ([1]; 0.187 mg/kg single i.v., 3.5 h): 1920 pg/mL
- Serum Cytokines IL-6 ([1]; 0.187 mg/kg single i.v., 3.5 h): 3139 pg/mL
- Serum Cytokines TNFα ([1]; 0.187 mg/kg single i.v., 3.5 h): 574 pg/mL
- Tumor Cytokines IFNβ ([1]; 0.187 mg/kg single i.v., 3.5 h): 4169 pg/g
- Tumor Cytokines IL-6 ([1]; 0.187 mg/kg single i.v., 3.5 h): 4798 pg/g
- Tumor Cytokines TNFα ([1]; 0.187 mg/kg single i.v., 3.5 h): 3201 pg/g
- Serum Cytokines IFNβ ([1]; 0.187 mg/kg single i.v., 8 h): 127 pg/mL
- Serum Cytokines IL-6 ([1]; 0.187 mg/kg single i.v., 8 h): 738 pg/mL
- Serum Cytokines TNFα ([1]; 0.187 mg/kg single i.v., 8 h): 136 pg/mL
- Tumor Cytokines IFNβ ([1]; 0.187 mg/kg single i.v., 8 h): 962 pg/g
- Tumor Cytokines IL-6 ([1]; 0.187 mg/kg single i.v., 8 h): 2244 pg/g
- Tumor Cytokines TNFα ([1]; 0.187 mg/kg single i.v., 8 h): 531 pg/g
- Serum Cytokines IFNβ ([1]; 0.375 mg/kg single i.v., 3.5 h): 8540 pg/mL
- Serum Cytokines IL-6 ([1]; 0.375 mg/kg single i.v., 3.5 h): 6014 pg/mL
- Serum Cytokines TNFα ([1]; 0.375 mg/kg single i.v., 3.5 h): 1242 pg/mL
- Tumor Cytokines IFNβ ([1]; 0.375 mg/kg single i.v., 3.5 h): 8044 pg/g
- Tumor Cytokines IL-6 ([1]; 0.375 mg/kg single i.v., 3.5 h): 8103 pg/g
- Tumor Cytokines TNFα ([1]; 0.375 mg/kg single i.v., 3.5 h): 6074 pg/g
- Serum Cytokines IFNβ ([1]; 0.375 mg/kg single i.v., 8 h): 263 pg/mL
- Serum Cytokines IL-6 ([1]; 0.375 mg/kg single i.v., 8 h): 1201 pg/mL
- Serum Cytokines TNFα ([1]; 0.375 mg/kg single i.v., 8 h): 160 pg/mL
- Tumor Cytokines IFNβ ([1]; 0.375 mg/kg single i.v., 8 h): 1723 pg/g
- Tumor Cytokines IL-6 ([1]; 0.375 mg/kg single i.v., 8 h): 2715 pg/g
- Tumor Cytokines TNFα ([1]; 0.375 mg/kg single i.v., 8 h): 617 pg/g
- Serum Cytokines IFNβ ([1]; 0.375 mg/kg single i.v., 12 h): 14 pg/mL
- Serum Cytokines IL-6 ([1]; 0.375 mg/kg single i.v., 12 h): 372 pg/mL
- Serum Cytokines TNFα ([1]; 0.375 mg/kg single i.v., 12 h): 50 pg/mL
- Tumor Cytokines IFNβ ([1]; 0.375 mg/kg single i.v., 12 h): 323 pg/g
- Tumor Cytokines IL-6 ([1]; 0.375 mg/kg single i.v., 12 h): 2794 pg/g
- Tumor Cytokines TNFα ([1]; 0.375 mg/kg single i.v., 12 h): 298 pg/g
- cytokine levels over time ([1]; CT26 tumor-bearing mice, single i.v. dose): sustained cytokine levels
- % CD3^+CD8^+ T cells (CD3^+CD8^+ T cells): 11.2 ± 0.2%
- % CD3^+CD8^+ T cells infiltrating the tumor as compared to the vehicle-treated group (CD3^+CD8^+ T cells; sodium salt, 0.375 mg/kg): higher percentage of T cell infiltration over that of vehicle control; also recorded: increase

From patent US12479858B2, “Macrocyclic compounds as sting agonists and methods and uses thereof” (Lupin Limited, priority 2019, dated 2025)
